Laboratory results reported in the NIST ThermoML archive (doi:10.1016/j.jct.2011.04.018).
Numbers after ± are expanded uncertainties.

Assay: activity coefficient (dimensionless); of the first substance listed, at infinite dilution; xn = mol fraction of the nth substance listed
Conditions: 101 kPa, Liquid, Chromatography, x1 = 0

Row | SMILES | activity coefficient (318.15 K) | activity coefficient (328.15 K) | activity coefficient (338.15 K) | activity coefficient (348.15 K) | activity coefficient (358.15 K) | activity coefficient (368.15 K) | activity coefficient (378.15 K) | activity coefficient (308.15 K)
1 | Cc1cccc(C)c1 [1,3-dimethylbenzene] + O=S(=O)([N-]S(=O)(=O)C(F)(F)F)C(F)(F)F.OCCC[n+]1ccccc1 | 3.58 ± 0.24 | 3.58 ± 0.24 | 3.59 ± 0.24 | 3.6 ± 0.25 | 3.6 ± 0.25 | 3.61 ± 0.25 | 3.62 ± 0.25 | –
2 | CCC(C)CC [3-methylpentane] + O=S(=O)([N-]S(=O)(=O)C(F)(F)F)C(F)(F)F.OCCC[n+]1ccccc1 | 40 ± 2.7 | 36.6 ± 2.5 | 33.3 ± 2.3 | 30.9 ± 2.1 | 28.5 ± 1.9 | – | – | 44 ± 3
3 | C#CCCCCC [1-heptyne] + O=S(=O)([N-]S(=O)(=O)C(F)(F)F)C(F)(F)F.OCCC[n+]1ccccc1 | 9.81 ± 0.67 | 9.53 ± 0.65 | 9.21 ± 0.63 | 9 ± 0.61 | 8.74 ± 0.6 | 8.55 ± 0.58 | – | 10.1 ± 0.7
4 | CCCCC [pentane] + O=S(=O)([N-]S(=O)(=O)C(F)(F)F)C(F)(F)F.OCCC[n+]1ccccc1 | 30.2 ± 2.1 | 27.9 ± 1.9 | 25.8 ± 1.8 | 24.3 ± 1.7 | – | – | – | 32.9 ± 2.3
